Experimental data: patent US20080176857A1, “4-Piperazinnylthieno[2,3-d]Pyrimidine Compounds as Platelet Aggregation Inhibitors” (priority 2005, published 2008)
Several values for one entry are separate records, joined by “and”; a condition that tells them apart may be missing. Equal entries are not always repeated.

Key:
P2Y12 receptor [1] = biological target: T1, P2Y12 receptor (Homo sapiens, UniProt Q9H244); test: [33P]2MeS-ADP binding to washed human platelet membranes (Assay 1); set-up: the P2Y12 receptor, which is found on the surface of platelets; tissue Interstate Blood bank, Memphis, Tenn; host or cells: washed human platelets from platelet rich plasma; conditions: for inhibition at 10 µM: at highest concentration tested
T1 sequence (Q9H244 whole entry): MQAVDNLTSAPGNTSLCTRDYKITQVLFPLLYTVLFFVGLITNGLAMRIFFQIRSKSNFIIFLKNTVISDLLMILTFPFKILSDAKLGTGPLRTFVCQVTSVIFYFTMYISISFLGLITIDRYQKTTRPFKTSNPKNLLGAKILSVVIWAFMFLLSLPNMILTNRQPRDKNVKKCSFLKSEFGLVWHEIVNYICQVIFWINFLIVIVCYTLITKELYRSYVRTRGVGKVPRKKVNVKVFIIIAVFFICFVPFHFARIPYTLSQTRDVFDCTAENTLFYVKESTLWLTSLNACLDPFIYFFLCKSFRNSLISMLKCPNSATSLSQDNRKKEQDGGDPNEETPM
Description: 1. Inhibition of [^33P]2MeS-ADP Binding to Washed Human Platelet Membranes. The ability of a test compound to bind to the P2Y12 receptor was evaluated in a platelet membrane binding assay. In this competitive binding assay, the test compound competed against a radiolabelled agonist for binding to the P2Y12 receptor, which is found on the surface of platelets. Inhibition of binding of the labeled material was measured and correlated to the amount and potency of the test compound. Data from this assay are presented in Table F. Platelet rich plasma (“PRP”) was obtained from the Interstate Blood bank, Memphis, Tenn. Platelet rich plasma was prepared from blood units collected in ACD ((prepared by (1) combining: 2.5 g sodium citrate (Sigma S-4641); 1.5 g citric acid (Sigma C-0706); and, 2.0 g dextrose (Sigma G-7528); (2) bringing pH to 4.5; and (3) adding water to bring volume to 100 mL) and using the light spin protocol; this protocol involves centrifugation at room temperature for approximately 20 minutes at speeds up to 160×g. Platelet rich plasma is supplied in units of approximately 200 ml. Each unit is distributed into four 50 mL polypropylene conical tubes for centrifugation. Blood from each donor is maintained separately.
The 50 mL tubes were centrifuged for 15 minutes at 1100 rpm in Sorvall RT6000D (with H1000B rotor). Internal centrifuge temperature was maintained at approximately room temperature (22-24° C.). This spin pelleted cellular components remaining from the PRP preparation.
The supernatant was decanted into fresh 50 mL tubes. To avoid carry over of cellular components following the room temperature centrifugation, approximately 5 mL of PRP was left in the tube and discarded. The tubes were capped and inverted 2-3 times and allowed to stand at room temperature for at least 15 minutes following inversion.
Optionally, a Coulter Counter may be used to count platelets from the resting samples during the resting phase. Normal human platelet counts are expected to range from 200,000 to 400,000 per μL of PRP supernatant.
The 50 mL tubes containing PRP supernatant were centrifuged for 15 minutes at 2300-2400 rpm to loosely pellet the platelets. The supernatant from this spin was decanted immediately into a clean cell culture bottle (Corning bottle) and saved in case further centrifugation was needed. The pellet of each tube was resuspended in 2-4 mL of Wash buffer (pH 6.5) (1 L prepared new daily—134 mM NaCl (Sigma S-5150); 3 mM KCl (Sigma P-9333); 1 mM CaCl2 (JT Baker 1311-01); 2 mM MgCl2 (Sigma M-2670); 5 mM glucose (EM 4074-2); 0.3 mM NaH2PO4 (Sigma S-9638)/12 mM NaHCO3 (JT Baker 3506-01); 5 mM HEPES pH 7.4 (Gibco 12379-012); 0.35% BSA (Sigma A-7906); 330 mg Heparin (bovine lung, Sigma H-4898); and 30 mL of ACD) by repeated gentle aspiration using disposable polypropylene sample pipettes.
Wash buffer (pH 6.5) was added to each tube to bring the volume to approximately 40 mL. Each tube was incubated for at least 15 minutes at 37° C.
The tubes were then centrifuged again for 15 minutes at 2300-2400 rpm to loosely pellet the platelets. The supernatant was decanted and discarded. The pellet was resuspended in 2-4 mL of Assay buffer (pH 7.4) (1 L volume—134 mM NaCl; 3 mM KCl; 1 mM CaCl2; 2 mM MgCl2; 5 mM glucose; 0.3 mM NaH2PO4/12 mM NaHCO3; 5 mM HEPES pH 7.4; and 0.35% BSA) by repeated aspiration using disposable polypropylene sample pipettes.
The pooled platelet preparation was counted using a Coulter Counter. […]

P2Y12 receptor [2] = biological target: T1, P2Y12 receptor; test: [33P]-2MeS-ADP binding to recombinant human P2Y12 membranes (Assay 3); set-up: expressed in transfected cells; host or cells: HEK cells; conditions: for IC50 / Ki: HEK cell membranes expressing human P2Y12, competition with 33P 2MeS-ADP
How it was run: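 Membranes from HEK cells transfected with human P2Y12, used in competitive binding against [33P]-2MeS-ADP in Tris/NaCl/EDTA buffer with 0.02% BSA. Seven-point 3-fold dilutions from 10 μM final, 1 h at room temperature, then filtration and scintillation counting. IC50 from four-parameter fit with Hill slope fixed at one, plate controls defining min/max.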

[3] = washed human platelet membranes, competition with [33P]2MeS-ADP
[4] = at highest concentration tested, 10 μM

Compound	inhibition at 10 µM (P2Y12 receptor [1]) [%]	IC50 (P2Y12 receptor [1]; [3]) [nM]	Ki (P2Y12 receptor [1]; [3]) [nM]	IC50 (P2Y12 receptor [2])	Ki (P2Y12 receptor [2])	inhibition at 10 µM (P2Y12 receptor [2]; [4]) [%]	% Inhibition (P2Y12 receptor [2]; [4]) [%]
CCc1cc2c(N3CCN(C(=O)Cc4ccccc4)CC3)nc(SCc3ccco3)nc2s1 [Example 86, 6-ethyl-2-[(2-furylmethyl)thio]-4-[4-(phenylacetyl)piperazin-1-yl]thieno[2,3-d]pyrimidine]	52.9	7930	7510	–	–	–	–
CCc1cc2c(N3CCN(C(=O)c4ccc(-c5ccccc5)cc4)CC3)nc(SC(C)C(C)=O)nc2s1 (stereo not drawn) [Example 29, 3-({4-[4-(1′-Biphenyl-4-ylcarbonyl)piperazin-1-yl]-6-ethylthieno[2,3-d]pyrimidin-2-yl}thio)butan-2-one]	–	–	–	160 nM	91 nM	82.2	–
CCOc1cccc(C(=O)N2CCN(c3nc(SCC(=O)OC)nc4sc(CC)cc34)CC2)c1 [Example 76, Methyl ({4-[4-(3-ethoxybenzoyl)piperazin-1-yl]-6-ethylthieno[2,3-d]pyrimidin-2-yl}thio)acetate]	–	–	–	1170 nM	730 nM	75.9	–
CCc1cc2c(N3CCN(C(=O)c4cccc(C(F)(F)F)c4)CC3)nc(SCC(=O)OC)nc2s1 [Example 60, Methyl [(6-ethyl-4-{4-[3-(trifluoromethyl)benzoyl]piperazin-1-yl}thieno[2,3-d]pyrimidin-2-yl)thio]acetate]	–	–	–	4870 nM	3160 nM	60.8	–
CCc1cc2c(N3CCN(C(=O)CC(C)CC(C)(C)C)CC3)nc(SCC(=O)OC)nc2s1 (stereo not drawn) [Example 39, Methyl ({6-ethyl-4-[4-(3,5,5-trimethylhexanoyl)piperazin-1-yl]thieno[2,3-d]pyrimidin-2-yl}thio)acetate]	–	–	–	> 10000 nM	> 6700 nM	43.1	–
CCc1cc2c(N3CCN(C(=O)Cc4ccccc4)CC3)nc(SCc3ccccc3)nc2s1 [Example 85, 2-(benzylthio)-6-ethyl-4-[4-(phenylacetyl)piperazin-1-yl]thieno[2,3-d]pyrimidine]	39.5	> 10000	–	–	–	–	–
CCc1cc2c(N3CCN(C(=O)c4ccccc4)CC3)nc(SCC(=O)OC)nc2s1 [Example 56, Methyl {[4-(4-benzoylpiperazin-1-yl)-6-ethylthieno[2,3-d]pyrimidin-2-yl]thio}acetate]	–	–	–	3040 nM	1520 nM	64.1	–
CCc1cc2c(N3CCN(C(=O)Cc4ccccc4)CC3)nc(SC(C)C(=O)O)nc2s1 (stereo not drawn) [Example 25, 2-({6-Ethyl-4-[4-(phenylacetyl)piperazin-1-yl]thieno[2,3-d]pyrimidin-2-yl}thio)propanoic acid]	–	–	–	200 nM and 270 nM	110 nM and 150 nM	88.6	94.08
CCc1cc2c(N3CCN(C(=O)CCC(=O)OC)CC3)nc(SCC(=O)OC)nc2s1 [Example 42, Methyl 4-(4-{6-ethyl-2-[(2-methoxy-2-oxoethyl)thio]thieno[2,3-d]pyrimidin-4-yl}piperazin-1-yl)-4-oxobutanoate]	–	–	–	5740 nM	3830 nM	52.3	–
C#CCCC(=O)N1CCN(c2nc(SCC(=O)OC)nc3sc(CC)cc23)CC1 [Example 37, Methyl {[6-ethyl-4-(4-pent-4-ynoylpiperazin-1-yl)thieno[2,3-d]pyrimidin-2-yl]thio}acetate]	–	–	–	1250 nM	840 nM	78.3	–
CCc1cc2c(N3CCN(C(=O)c4ccc(-c5ccccc5)cc4)CC3)nc(SCCNC(C)=O)nc2s1 [Example 27, N-[2-({4-[4-(1,1′-Biphenyl-4-ylcarbonyl)piperazin-1-yl]-6-ethylthieno[2,3-d]pyrimidin-2-yl}thio)ethyl]acetamide]	–	–	–	100 nM	58 nM	96.5	–
CCc1cc2c(N3CCN(C(=O)c4ccc5[nH]ccc5c4)CC3)nc(SCC(=O)OC)nc2s1 [Example 62, Methyl ({6-ethyl-4-[4-(1H-indol-5-ylcarbonyl)piperazin-1-yl]thieno[2,3-d]pyrimidin-2-yl}thio)acetate]	–	–	–	5860 nM	3530 nM	50.9	–
